Values quoted from earlier work, collected in patent publication US6974685B2, “High production method of prenyl alcohol using saccharomyces cells” (Toyota Jidosha Kabushiki Kaisha 1, priority 2000, dated 2005).

System: erg mutant of Saccharoinyces cerevisiae
Conditions: Curr. Genet., 18, 41-46 (1990)

Which farnesol production does the source give for `CC(C)=CCCC(C)=CCCC(C)=CCO` [FOH, farnesol] here?
The farnesol production was 1 mg/L.
